Assay: xn = mol fraction of the nth substance listed
Conditions: 100 kPa

CCC[n+]1ccccc1.N#C[N-]C#N + O
Conditions	electrical conductivity, x1 = 0.9305 [S/m]	electrical conductivity, x1 = 0.9444 [S/m]	electrical conductivity, x1 = 0.9588 [S/m]	electrical conductivity, x1 = 0.9735 [S/m]	electrical conductivity, x2 = 0.0114 [S/m]	viscosity, x1 = 0.9277 [mPa·s]	viscosity, x1 = 0.9416 [mPa·s]	viscosity, x1 = 0.9559 [mPa·s]	viscosity, x1 = 0.9705 [mPa·s]	viscosity, x2 = 0.0144 [mPa·s]
298.15 K	–	1.44	1.41	1.37	1.34	20.93	21.6	–	–	24.55
303.15 K	–	–	1.61	–	1.53	17.56	18.05	18.78	19.65	20.53
308.15 K	2.03	1.97	1.91	1.86	1.81	15.11	15.43	15.97	16.69	17.49
313.15 K	2.35	2.3	2.23	2.17	–	–	13.31	–	14.28	14.87
318.15 K	2.64	–	2.57	2.52	2.47	11.38	11.63	11.99	–	12.93
323.15 K	2.98	–	2.92	–	2.84	–	9.95	10.29	10.68	11.07
328.15 K	3.42	3.38	3.33	3.29	3.25	8.53	–	–	9.21	9.66
333.15 K	3.88	–	3.77	–	3.68	7.65	7.77	7.97	8.23	8.57
338.15 K	4.31	4.27	–	4.17	4.11	6.91	7.01	–	7.41	7.68

CCCn1cc[n+](C)c1.N[C@@H](CO)C(=O)[O-] + O
Conditions	electrical conductivity, x1 = 0.8651 [S/m]	electrical conductivity, x1 = 0.881 [S/m]	electrical conductivity, x1 = 0.8954 [S/m]	electrical conductivity, x1 = 0.9112 [S/m]	electrical conductivity, x1 = 0.9275 [S/m]	viscosity, x1 = 0.878 [mPa·s]	viscosity, x1 = 0.8933 [mPa·s]	viscosity, x1 = 0.909 [mPa·s]	viscosity, x1 = 0.9253 [mPa·s]	viscosity, x1 = 0.9422 [mPa·s]
298.15 K	0.0244	0.0231	0.0219	0.0204	0.0191	–	2259	–	–	2495
303.15 K	0.0369	0.0356	0.0339	0.0321	0.0301	1399	1414	1439	1477	–
308.15 K	0.0559	0.0538	0.0521	0.0497	0.0469	–	923	942	966	1000
313.15 K	–	0.0775	–	–	0.0685	617	624	633	650	670
318.15 K	0.112	0.109	0.106	–	–	428	–	–	447	462
323.15 K	0.154	–	–	0.14	0.135	300	306	312	322	–
328.15 K	0.204	–	0.194	0.187	0.182	229	231	234	–	245
333.15 K	0.268	0.261	0.256	–	0.241	–	172.3	174.6	178.4	183
338.15 K	0.342	0.333	0.327	–	–	130.5	131.1	132.4	–	137.2

CC[n+]1ccccc1.N#C[N-]C#N + O
Conditions	electrical conductivity, x1 = 0.9285 [S/m]	electrical conductivity, x1 = 0.9414 [S/m]	electrical conductivity, x1 = 0.9545 [S/m]	electrical conductivity, x1 = 0.9681 [S/m]	electrical conductivity, x2 = 0.0181 [S/m]	viscosity, x1 = 0.9353 [mPa·s]	viscosity, x1 = 0.9484 [mPa·s]	viscosity, x1 = 0.9617 [mPa·s]	viscosity, x1 = 0.9754 [mPa·s]	viscosity, x2 = 0.0105 [mPa·s]
298.15 K	2.27	–	2.06	–	1.86	14.98	15.27	15.62	16.02	–
303.15 K	2.46	2.37	–	2.18	2.08	12.98	13.23	13.58	–	14.38
308.15 K	2.75	2.66	–	2.48	2.39	11.41	11.59	11.87	12.17	–
313.15 K	3.05	2.98	2.9	–	2.74	–	10.26	–	10.73	–
318.15 K	3.39	3.33	–	3.18	3.1	8.95	9.11	9.32	9.52	9.75
323.15 K	3.85	3.78	3.7	3.61	3.54	7.77	7.9	8.08	–	8.44
328.15 K	4.34	4.26	4.18	4.08	4.01	7.01	7.13	7.28	–	7.61
333.15 K	–	–	4.7	–	4.48	6.35	6.45	6.58	6.73	6.88
338.15 K	5.47	5.34	5.24	5.11	5.01	–	–	5.98	–	6.22

CCn1cc[n+](C)c1.N[C@@H](CO)C(=O)[O-] + O
electrical conductivity [S/m]
Conditions	303.15 K	308.15 K	313.15 K	318.15 K	323.15 K	328.15 K	333.15 K	338.15 K
x1 = 0.8695	0.102	0.14	0.176	–	0.276	0.348	–	0.526
x1 = 0.8836	0.1	0.138	0.174	–	0.273	–	–	0.522
x1 = 0.8982	0.0982	0.135	0.172	0.218	0.271	0.343	0.429	0.518
x1 = 0.9131	0.0964	–	–	0.216	–	0.341	0.426	0.515
x1 = 0.9275	–	0.13	–	0.213	0.266	0.338	0.423	–

From a compilation of properties of binary mixtures (doi:10.7498/aps.66.196101)
